Species: Rattus norvegicus
Assay: Open TG-GATES - Regimen: Daily Repeat
Assay type: toxicity, organism-based, Sprague-Dawley
Parameters: regimen Daily Repeat, gender Male, age 6 weeks
Conditions: in vivo, po, route gavage; for APTT / Bas / Eos / Fbg / Hb / Ht / Lym / MCH / MCHC / MCV / Mono / Neu / PT / Plat / RBC / Ret / WBC: tissue Blood; for KIDNEY_L / KIDNEY_R / KIDNEY_TOTAL: tissue Kidney; for LIVER: tissue Liver
[1] = 0 mg/kg, […], tissue Plasma, dose level Control, time 28 day
[2] = 100 mg/kg, 72 h, dose level Low, time 3 day
[3] = 100 mg/kg, 72 h, tissue Plasma, dose level Low, time 3 day
[4] = 100 mg/kg, […], dose level Low, time 7 day
[5] = 100 mg/kg, […], dose level Low, time 14 day
[6] = 100 mg/kg, […], dose level Low, time 28 day
[7] = 100 mg/kg, […], tissue Plasma, dose level Low, time 7 day
[8] = 100 mg/kg, […], tissue Plasma, dose level Low, time 14 day
[9] = 100 mg/kg, […], tissue Plasma, dose level Low, time 28 day

For `O=C(O)c1ccccc1Nc1ccccc1` [FENAMIC ACID], the RALB [1] was 2.8 g/dL, the TBIL [1] was 0.05 mg/dL and the TC [1] was 64.8 mg/dL. It also gave a TG [1] of 134.8 mg/dL, a TP [1] of 6.2 g/dL and a gamma-GTP [1] of 1 IU/L. The TERMINAL_BW [2] was 236.5 g, the APTT [2] was 15.6 s and the Bas [2] was 0.6%. For the same compound, the Eos [2] was 1%, the Fbg [2] was 286.4 mg/dL and the Hb [2] was 13.5 g/dL. It also gave a Ht [2] of 40.5%, a Lym [2] of 79.6% and an MCH [2] of 20.9 pg. It also gave an MCHC [2] of 33.4%, an MCV [2] of 62.6 fL and a Mono [2] of 2%. It also gave a Neu [2] of 16.8%, a PT [2] of 14.2 s and a Plat [2] of 122.4 x10_4/uL. For the same compound, the RBC [2] was 647.6 x10_4/ul, the Ret [2] was 7.2% and the WBC [2] was 82.6 x10_2/uL. The KIDNEY_L [2] was 1 g, the KIDNEY_R [2] was 1 g and the KIDNEY_TOTAL [2] was 2 g. It also gave an LIVER [2] of 11.2 g, an A/G [3] of 0.9 and an ALP [3] of 1990.6 IU/L. The ALT [3] was 37.6 IU/L, the AST [3] was 64.2 IU/L and the BUN [3] was 13.8 mg/dL. The CRE [3] was 0.2 mg/dL, the Ca [3] was 11.7 mg/dL and the Cl [3] was 106.2 meq/L. The GLC [3] was 184.4 mg/dL, the IP [3] was 6.9 mg/dL and the K [3] was 4.2 meq/L. The LDH [3] was 82 IU/L, the Na [3] was 143.6 meq/L and the PL [3] was 144.2 mg/dL. It also gave an RALB [3] of 2.7 g/dL, a TC [3] of 75.6 mg/dL and a TG [3] of 72.2 mg/dL. For the same compound, the TP [3] was 5.6 g/dL, the gamma-GTP [3] was 1.2 IU/L and the TERMINAL_BW [4] was 277.8 g. The TERMINAL_BW [5] was 337.7 g, the TERMINAL_BW [6] was 419.6 g and the APTT [4] was 16 s. The Bas [4] was 0.6%, the Eos [4] was 1% and the Fbg [4] was 288.2 mg/dL. For the same compound, the Hb [4] was 13.4 g/dL, the Ht [4] was 39.6% and the Lym [4] was 73%. The MCH [4] was 20.9 pg, the MCHC [4] was 33.9% and the MCV [4] was 61.5 fL. It also gave a Mono [4] of 2.6%, a Neu [4] of 22.8% and a PT [4] of 13.9 s. The Plat [4] was 114.4 x10_4/uL, the RBC [4] was 642.8 x10_4/ul and the Ret [4] was 5.7%. It also gave a WBC [4] of 82.6 x10_2/uL, an APTT [5] of 16.8 s and a Bas [5] of 0.8%. It also gave an Eos [5] of 1%, a Fbg [5] of 308.8 mg/dL and a Hb [5] of 14.4 g/dL. It also gave a Ht [5] of 41.6%, a Lym [5] of 75.4% and an MCH [5] of 20.8 pg. It also gave an MCHC [5] of 34.5%, an MCV [5] of 60.3 fL and a Mono [5] of 2.4%. The Neu [5] was 20.2%, the PT [5] was 13.7 s and the Plat [5] was 118.3 x10_4/uL. It also gave an RBC [5] of 689.4 x10_4/ul, a Ret [5] of 4.5% and a WBC [5] of 82.2 x10_2/uL. It also gave an APTT [6] of 17.2 s, a Bas [6] of 0.2% and an Eos [6] of 1%. The Fbg [6] was 305.2 mg/dL, the Hb [6] was 15.1 g/dL and the Ht [6] was 43.9%. For the same compound, the Lym [6] was 78.2%, the MCH [6] was 19.4 pg and the MCHC [6] was 34.5%. The MCV [6] was 56.2 fL, the Mono [6] was 2% and the Neu [6] was 18%. The PT [6] was 14.3 s, the Plat [6] was 103.7 x10_4/uL and the RBC [6] was 780.8 x10_4/ul. The Ret [6] was 2.6%, the WBC [6] was 94 x10_2/uL and the KIDNEY_L [4] was 1.2 g. The KIDNEY_R [4] was 1.2 g, the KIDNEY_TOTAL [4] was 2.3 g and the KIDNEY_L [5] was 1.3 g. The KIDNEY_R [5] was 1.2 g, the KIDNEY_TOTAL [5] was 2.5 g and the KIDNEY_L [6] was 1.5 g. The KIDNEY_R [6] was 1.5 g, the KIDNEY_TOTAL [6] was 3 g and the LIVER [4] was 13 g. The LIVER [5] was 14.7 g, the LIVER [6] was 16.7 g and the A/G [7] was 0.9. It also gave an ALP [7] of 1790.8 IU/L, an ALT [7] of 37 IU/L and an AST [7] of 63.4 IU/L. For the same compound, the BUN [7] was 13.4 mg/dL, the CRE [7] was 0.2 mg/dL and the Ca [7] was 11.4 mg/dL. The Cl [7] was 105.6 meq/L, the GLC [7] was 182 mg/dL and the IP [7] was 6.8 mg/dL. It also gave a K [7] of 4.3 meq/L, an LDH [7] of 94.6 IU/L and a Na [7] of 142.8 meq/L. It also gave a PL [7] of 160.6 mg/dL, an RALB [7] of 2.7 g/dL and a TC [7] of 80.2 mg/dL. It also gave a TG [7] of 136.8 mg/dL, a TP [7] of 5.8 g/dL and a gamma-GTP [7] of 1 IU/L. It also gave an A/G [8] of 0.9, an ALP [8] of 1703.6 IU/L and an ALT [8] of 35.6 IU/L. It also gave an AST [8] of 63.6 IU/L, a BUN [8] of 14.2 mg/dL and a CRE [8] of 0.3 mg/dL. It also gave a Ca [8] of 11.1 mg/dL, a Cl [8] of 105.2 meq/L and a GLC [8] of 179.4 mg/dL. For the same compound, the IP [8] was 7 mg/dL, the K [8] was 4.2 meq/L and the LDH [8] was 95 IU/L. For the same compound, the Na [8] was 143.4 meq/L, the PL [8] was 158.4 mg/dL and the RALB [8] was 2.7 g/dL. The TC [8] was 80.8 mg/dL, the TG [8] was 109.2 mg/dL and the TP [8] was 5.8 g/dL. It also gave a gamma-GTP [8] of 1 IU/L, an A/G [9] of 0.8 and an ALP [9] of 1187.4 IU/L. The ALT [9] was 33.4 IU/L, the AST [9] was 59.2 IU/L and the BUN [9] was 14.2 mg/dL. It also gave a CRE [9] of 0.3 mg/dL, a Ca [9] of 11 mg/dL and a Cl [9] of 105.6 meq/L. For the same compound, the GLC [9] was 179.6 mg/dL, the IP [9] was 6.5 mg/dL and the K [9] was 3.9 meq/L. For the same compound, the LDH [9] was 87 IU/L, the Na [9] was 144.6 meq/L and the PL [9] was 154.2 mg/dL. The RALB [9] was 2.8 g/dL.
